Assay results reported in ChEMBL document CHEMBL5303573, “Mapping human microbiome drug metabolism by gut bacteria and their genes” (Nature, 2019).

Columns and labels:
[1] = limosilactobacillus reuteri cf48-3a, 12 h, 2 µM
Description: The drug is tested on Lactobacillus reuteri CF48-3A strain: BEI HM-102 for biotransformation. The drug concentrations were measured before and after a 12-h incubation by liquid-chromatography-coupled mass spectrometry (LC–MS)

[2] = The drug is tested on Bacteroides caccae strain: ATCC43185 for biotransformation. The drug concentrations were measured before and after a 12-h incubation by liquid-chromatography-coupled mass spectrometry (LC–MS); conditions: 2 µM
[3] = bacteroides intestinalis, 12 h, 2 µM
Description: The drug is tested on Bacteroides intestinalis strain: DSM17393 for biotransformation. The drug concentrations were measured before and after a 12-h incubation by liquid-chromatography-coupled mass spectrometry (LC–MS)

[4] = anaerostipes sp., 12 h, 2 µM
Description: The drug is tested on Anaerostipes sp. strain: fecal isolate for biotransformation. The drug concentrations were measured before and after a 12-h incubation by liquid-chromatography-coupled mass spectrometry (LC–MS)

[5] = parabacteroides distasonis, 12 h, 2 µM
Description: The drug is tested on Parabacteroides distasonis strain: ATCC8503 for biotransformation. The drug concentrations were measured before and after a 12-h incubation by liquid-chromatography-coupled mass spectrometry (LC–MS)

[6] = The drug is tested on Eubacterium ventriosum strain: ATCC27560 for biotransformation. The drug concentrations were measured before and after a 12-h incubation by liquid-chromatography-coupled mass spectrometry (LC–MS); type: ADME; set-up: dose 2 uM, timepoint 0 vs 12 hours; conditions: 2 µM
[7] = The drug is tested on Ruminococcus lactaris strain: ATCC29176 for biotransformation. The drug concentrations were measured before and after a 12-h incubation by liquid-chromatography-coupled mass spectrometry (LC–MS); conditions: 2 µM
[8] = akkermansia muciniphila, 12 h, 2 µM
Description: The drug is tested on Akkermansia muciniphila strain: ATCC BAA-835 for biotransformation. The drug concentrations were measured before and after a 12-h incubation by liquid-chromatography-coupled mass spectrometry (LC–MS)

[9] = The drug is tested on Bacteroides finegoldii strain: DSM17565 for biotransformation. The drug concentrations were measured before and after a 12-h incubation by liquid-chromatography-coupled mass spectrometry (LC–MS); conditions: 2 µM
[10] = The drug is tested on Bacteroides fragilis strain: HMW615 for biotransformation. The drug concentrations were measured before and after a 12-h incubation by liquid-chromatography-coupled mass spectrometry (LC–MS); conditions: 2 µM
[11] = The drug is tested on Odoribacter splanchnicus strain: fecal isolate for biotransformation. The drug concentrations were measured before and after a 12-h incubation by liquid-chromatography-coupled mass spectrometry (LC–MS); conditions: 2 µM
[12] = The drug is tested on Parabacteroides merdae strain: ATCC43184 for biotransformation. The drug concentrations were measured before and after a 12-h incubation by liquid-chromatography-coupled mass spectrometry (LC–MS); conditions: 2 µM
[13] = parabacteroides johnsonii, 12 h, 2 µM
Description: The drug is tested on Parabacteroides johnsonii strain: DSM18315 for biotransformation. The drug concentrations were measured before and after a 12-h incubation by liquid-chromatography-coupled mass spectrometry (LC–MS)

[14] = The drug is tested on Bifidobacterium longum subsp. Infantis strain: CCUG52486 for biotransformation. The drug concentrations were measured before and after a 12-h incubation by liquid-chromatography-coupled mass spectrometry (LC–MS); conditions: 2 µM
[15] = bacteroides thetaiotaomicron, 12 h, 2 µM
Description: The drug is tested on Bacteroides thetaiotaomicron strain: 3731 for biotransformation. The drug concentrations were measured before and after a 12-h incubation by liquid-chromatography-coupled mass spectrometry (LC–MS)

[16] = segatella copri, 12 h, 2 µM
Description: The drug is tested on Prevotella copri strain: DSM18205 for biotransformation. The drug concentrations were measured before and after a 12-h incubation by liquid-chromatography-coupled mass spectrometry (LC–MS)

[17] = The drug is tested on Bacteroides sp. WH2 strain: WH2 for biotransformation. The drug concentrations were measured before and after a 12-h incubation by liquid-chromatography-coupled mass spectrometry (LC–MS); conditions: bacteroides sp. wh2, 12 h, 2 µM
[18] = The drug is tested on Providencia stuartii strain: ATCC25827 for biotransformation. The drug concentrations were measured before and after a 12-h incubation by liquid-chromatography-coupled mass spectrometry (LC–MS); conditions: 2 µM
[19] = The drug is tested on Anaerococcus hydrogenalis strain: DSM7454 for biotransformation. The drug concentrations were measured before and after a 12-h incubation by liquid-chromatography-coupled mass spectrometry (LC–MS); conditions: 2 µM
[20] = The drug is tested on Blautia luti strain: DSM14534 for biotransformation. The drug concentrations were measured before and after a 12-h incubation by liquid-chromatography-coupled mass spectrometry (LC–MS); type: ADME; set-up: dose 2 uM, timepoint 0 vs 12 hours; conditions: 2 µM

| SMILES | Bacterial Biotransformation [1] | Bacterial Biotransformation [2] | Bacterial Biotransformation [3] | Bacterial Biotransformation [4] | Bacterial Biotransformation [5] | Bacterial Biotransformation [6] | Bacterial Biotransformation [7] | Bacterial Biotransformation [8] | Bacterial Biotransformation [9] | Bacterial Biotransformation [10] | Bacterial Biotransformation [11] | Bacterial Biotransformation [12] | Bacterial Biotransformation [13] | Bacterial Biotransformation [14] | Bacterial Biotransformation [15] | Bacterial Biotransformation [16] | Bacterial Biotransformation [17] | Bacterial Biotransformation [18] | Bacterial Biotransformation [19] | Bacterial Biotransformation [20] |
| --- | --- | --- | --- | --- | --- | --- | --- | --- | --- | --- | --- | --- | --- | --- | --- | --- | --- | --- | --- | --- |
| CCN1CCCC1CNC(=O)c1cc(S(=O)(=O)CC)c(N)cc1OC (stereo not given) [AMISULPRIDE] | Compound NOT metabolized | Compound NOT metabolized | Compound NOT metabolized | Compound NOT metabolized | Compound NOT metabolized | Compound NOT metabolized | Compound NOT metabolized | Compound NOT metabolized | Compound NOT metabolized | Compound NOT metabolized | Compound NOT metabolized | Compound NOT metabolized | Compound NOT metabolized | Compound NOT metabolized | Compound NOT metabolized | Compound NOT metabolized | Compound NOT metabolized | Compound NOT metabolized | Compound NOT metabolized | Compound NOT metabolized |
| CNCCC(Oc1ccc(C(F)(F)F)cc1)c1ccccc1 (stereo not given) [FLUOXETINE] | Compound metabolized | Compound metabolized | Compound metabolized | Compound metabolized | Compound metabolized | Compound metabolized | Compound metabolized | Compound metabolized | Compound NOT metabolized | Compound metabolized | Compound metabolized | Compound metabolized | Compound metabolized | Compound metabolized | Compound metabolized | Compound metabolized | Compound metabolized | Compound metabolized | Compound NOT metabolized | Compound NOT metabolized |
| CC(C)C[C@H]1C(=O)N2CCC[C@H]2[C@]2(O)O[C@](NC(=O)[C@@H]3C=C4c5cccc6[nH]c(Br)c(c56)C[C@H]4N(C)C3)(C(C)C)C(=O)N12.CS(=O)(=O)O [BROMOCRIPTINE MESYLATE] | Compound metabolized | Compound metabolized | Compound metabolized | Compound metabolized | Compound metabolized | Compound metabolized | Compound metabolized | Compound metabolized | Compound metabolized | Compound metabolized | Compound metabolized | Compound metabolized | Compound metabolized | Compound metabolized | Compound metabolized | Compound metabolized | Compound metabolized | Compound metabolized | Compound metabolized | Compound metabolized |
| N[C@@H](Cc1ccc(N(CCCl)CCCl)cc1)C(=O)O | Compound metabolized | Compound metabolized | Compound metabolized | Compound metabolized | Compound metabolized | Compound metabolized | Compound metabolized | Compound metabolized | Compound metabolized | Compound metabolized | Compound metabolized | Compound metabolized | Compound metabolized | Compound metabolized | Compound metabolized | Compound metabolized | Compound metabolized | Compound metabolized | Compound metabolized | Compound metabolized |
| COc1ccc2[nH]c([S+]([O-])Cc3ncc(C)c(OC)c3C)nc2c1 (stereo not given) [OMEPRAZOLE] | Compound metabolized | Compound metabolized | Compound metabolized | Compound metabolized | Compound metabolized | Compound metabolized | Compound metabolized | Compound metabolized | Compound metabolized | Compound metabolized | Compound metabolized | Compound metabolized | Compound metabolized | Compound metabolized | Compound metabolized | Compound metabolized | Compound metabolized | Compound metabolized | Compound metabolized | Compound metabolized |
| CC(=O)OCC(=O)NCCCOc1cccc(CN2CCCCC2)c1 [ROXATIDINE ACETATE] | Compound NOT metabolized | Compound metabolized | Compound metabolized | Compound metabolized | Compound metabolized | Compound metabolized | Compound metabolized | Compound NOT metabolized | Compound metabolized | Compound metabolized | Compound metabolized | Compound metabolized | Compound metabolized | Compound metabolized | Compound metabolized | Compound metabolized | Compound metabolized | Compound metabolized | Compound metabolized | Compound metabolized |
